Measured values taken from US12508262B2, “Methods of using ALK2 inhibitors” (Keros Therapeutics, Inc., priority 2020, dated 2025).

Assays:
healthy volunteers [1] = test: Phase 1 single- and multiple-ascending dose study, safety and tolerability; type: in vivo, human
Excerpt: A total of 131 healthy, males aged 18 to 60 years and post-menopausal females aged 45 to 60 years, participated in this study.
(§1) The primary objectives of this study were to a) evaluate safety and tolerability of escalating doses of the compound of Formula I-11 administered as single and multiple oral doses in healthy male volunteers and healthy postmenopausal female volunteers and b) evaluate the PK parameters following escalating doses of the compound of Formula I-11 administered as single and multiple oral doses. The secondary objective of this study was to evaluate the pharmacodynamic (PD) parameters following escalating doses of the compound of Formula I-11 administered as single and multiple oral doses. This study was conducted in two parts.
Part 1 included 80 participants (10 cohorts of 8 participants each). Male and female participants who met the eligibility criteria were randomly assigned, in a ratio of 3:1 to receive the compound of Formula I-11 or matching placebo, N=6 and 2 per dose cohort, respectively. Participant enrollment included […] males and 12.5% females (postmenopausal). The IMP formulation used in Cohorts 1 through 6 was an oral capsule (doses of 1, 3, 10, 30, 100, or 300 mg capsule formulation). An oral liquid formulation was evaluated in Cohorts 7 through 10 (doses of 30, 100, 300 or 450 mg liquid formulation).
(§2) Participants in Part 1 received a single oral dose of the compound of Formula I-11 or placebo on Day 1 and serial PK samples were collected. Baseline assessments were performed on day −1 prior to dosing. Samples were collected for determination of pharmacodynamic parameters at pre-dose daily and up to 24 hours post dose (day 2) after a single oral dose of the compound of Formula I-11. Participants remained at the study site for observation for 24 hours post-dose through the PK sample collection on Day 2. Participants returned to the site for the 48, 72, and 120-hour post-dose sample collection on Days 3, 4, and 6. Safety was evaluated by a Safety Review Committee prior to escalation to the next dose level cohort.
Part 2, Cohorts 1 through 4, included 41 participants (4 cohorts of 10 participants each and 1 additional placebo participant in Cohort 1). Male and female participants who met the eligibility criteria were randomly assigned at a ratio of 4:1 to receive either the compound of Formula I-11 oral liquid formulation or matching placebo, N=8 and 2 per dose cohort respectively. Forty (97.6%) males and 1 (2.4%) female (placebo) participant were enrolled.
(§3) Participants in Part 2, Cohorts 1 through 3, received a daily oral dose of the compound of Formula I-11 (50, 100, or 200 mg liquid formulation respectively) or placebo for 7 days. A daily oral dose of the compound of Formula I-11 or placebo in participants in Part 2, Cohort 4 (350 mg liquid formulation) was planned for 14 days but was discontinued early in all subjects, either by the Investigator because of AEs, or by the Sponsor. A decision was made by the Sponsor to discontinue dosing of the entire cohort based on the frequency of AEs and laboratory abnormalities after Day 9. In Cohort 4, participants on the compound of Formula I-11 received daily oral dosing of 350 mg for up to 7 days; one placebo participant received daily oral dosing for 9 days. Samples were collected for determination of pharmacodynamic parameters at pre-dose daily and to 24 hours post dose (day 8) while on drug. Daily trough PK samples were collected for the determination of steady-state from Day 2 to Day 12 or 13. Participants returned to the site on Day 30 for an end-of-study visit. Safety was evaluated by a Safety Review Committee prior to escalation to the next dose level cohort.
Part 2, MAD Cohort 5 (C5) participants received either the compound of Formula I-11, 100 mg (n=8) or placebo (n=2) on Days 1, 2, 3, 4, 5, 6, 7. The last dose was administered on the morning of Day 7. […]

[2] = Phase 1 single- and multiple-ascending dose study, PK parameters; type: in vivo, human
Excerpt: as §1
as §2, with “Participants remained at the study site for observation for 24 hours post-dose through the PK sample collection on Day 2. Participants returned to the site for the 48, 72, and 120-hour post-dose sample collection on Days 3, 4, and 6.” left out
Participants in Part 2, Cohorts 1 through 3, received a daily oral dose of the compound of Formula I-11 (50, 100, or 200 mg liquid formulation respectively) or placebo for 7 days. […] Safety was evaluated by a Safety Review Committee prior to escalation to the next dose level cohort. […]

healthy volunteers [3] = test: Phase 1 single- and multiple-ascending dose study, pharmacodynamic endpoints (serum iron, transferrin saturation, ferritin, hepcidin, reticulocyte hemoglobin, cholesterol); type: in vivo, human; settings: for transferrin saturation, mean percent change from baseline / serum iron, mean change from baseline: Day 4, multiple ascending doses; for transferrin saturation, mean percent change from baseline: placebo 0.3%; for serum iron, mean change from baseline: placebo 1.4
Excerpt: as §1, §2, §3
Part 2, MAD Cohort 5 (C5) participants received either the compound of Formula I-11, 100 mg (n=8) or placebo (n=2) on Days 1, 2, 3, 4, 5, 6, 7. The last dose was administered on the morning of Day 7. Serial PK sample collection for the determination of steady-state concentrations of the compound of Formula I-11 was done at pre-dose and up to 24 hours post-dose, beginning on Day 1, 4 and 7. Participants returned for follow-up visits on […], and Day 30 for an end-of-study visit.
Pharmacodynamic endpoints: Protocol-specified endpoints were assessed at baseline and regularly throughout the study period. These assessments included measurements of serum iron, transferrin saturation (calculated as serum iron/total iron-binding capacity), serum ferritin, serum hepcidin, and reticulocyte hemoglobin content, serum cholesterol, LDL, and HDL cholesterol. Measurements of all pharmacodynamic end points were made using standard clinical laboratory tests. Hepcidin analysis was performed using an ELISA kit from Intrinsic LifeSciences (Intrinsic Hepcidin IDx™ ELISA kit).

[4] = test system: mouse model of chronic kidney disease (CKD); test: Adenine-induced mouse model of chronic kidney disease; type: in vivo, C57Bl/6 mice
Protocol: To induce chronic kidney disease (CKD), 6-week-old C57Bl/6 mice were dosed daily via PO administration with 50 mg/kg of adenine or vehicle. After six weeks of adenine administration, a representative group of mice were taken down and tested to confirm anemia. Concomitantly, the remainder of the CKD mice began dosing with either vehicle or the compound of Formula I-42 5 mg/kg PO daily. Mice were dosed with vehicle or the compound of Formula I-42 while still receiving daily adenine for 10 days. The study was terminated at 52 days and hematology (Heska, Element HT-5), serum hepcidin (Intrinsic Biosciences, Hepcidin Murine Compete), and serum iron (Bioassay Systems, QuantiChrom Kit) levels were assessed.

mouse model of IRIDA = test: TMPRSS6 siRNA mouse model of IRIDA; type: in vivo, C57BL/6 mice
Protocol: To establish a murine model of IRIDA, eight-week-old male C57BL/6 mice were dosed intravenously with lipid encapsulated siRNA targeted against either Luciferase (control) or TMPRSS6 (0.75 mg/kg). Following confirmation of disease at day 8 post initial siRNA administration, once-daily oral dosing with the compound of Formula I-42 (5 mg/kg) or vehicle commenced. A second siRNA administration was given on day 10. Studies were terminated 18 days post initial siRNA administration. Hematological parameters, serum iron, and serum hepcidin were measured at the end of the study.

[5] = fourth dose level (350 mg daily)
[6] = second dose level (100 mg daily)
[7] = third dose level (200 mg daily)
[8] = 5 mg/kg PO daily for 10 days, Day 52
[9] = 5 mg/kg PO daily, after 10 days
[10] = 5 mg/kg once-daily oral from day 8, study termination (day 18)
[11] = 5 mg/kg once-daily oral from day 8, study termination (day 18), with TMPRSS6 siRNA

SMILES: COc1cc2c(-c3cnn4cc(N5CCC(N6CCN(C)CC6)CC5)cnc34)ccnc2cc1F [Formula I-11]
- well tolerated dose level, repeated dose (healthy volunteers [1]; after 7 daily oral doses, healthy participants): up to 200 mg
- participants who discontinued the study due to AEs (healthy volunteers [1]; human, in vivo): 25%
- AEs reported in ≥2 subjects and higher than placebo (healthy volunteers [1]; in vivo): headache, nausea, vomiting, diarrhea, gastroenteritis, chills, pyrexia, myalgia, decreased appetite, lymphopenia, neutropenia, abdominal discomfort, abdominal pain (upper), dizziness, fatigue, rhinorrhea, tonsillitis, and liver enzyme increases
- AEs that led to study drug discontinuation in three or more participants (healthy volunteers [1]; in vivo): lymphopenia and chills
- onset of lymphopenia (% change in lymphocytes) (healthy volunteers [1]; in vivo): 5 days
- reversibility of lymphopenia / lymphocyte changes (healthy volunteers [1]; in vivo): reversible
- serious adverse events (healthy volunteers [1]; in vivo): no serious adverse events
- severity of the majority of AEs (healthy volunteers [1]; in vivo): mild or moderate in severity
- subjects who discontinued the study due to AEs (healthy volunteers [1]; in vivo): none
- subjects with increases in ALT >2×ULN (healthy volunteers [1]; in vivo): 3 subjects
- development of lymphopenia (lymphocyte counts <1.0×10^9 cells/L) (healthy volunteers [1]; in vivo, po): ≥ 6 day
- well tolerated dose level, single dose (healthy volunteers [1]; single oral dose, healthy participants): up to 450 mg
- half-life ([2]; both sexes, human, in vivo, oral, healthy participants, approximately): 10 to 15 h
- Mean AUC and Cmax, dose proportionality ([2]; multiple doses from 50-200 mg): greater than dose-proportional increases
- time to decrease in hepcidin (healthy volunteers [3]; Cohort 5 (100 mg), after administration of the first dose, as early as): 4 h
- transferrin saturation, mean percent change from baseline (healthy volunteers [3]; first dose level (50 mg daily)): 1.6%
- serum iron, mean change from baseline (healthy volunteers [3]; first dose level (50 mg daily)): 1.48 μM/L
- transferrin saturation, mean percent change from baseline (healthy volunteers [3]; [5]): 30.1%
- serum iron, mean change from baseline (healthy volunteers [3]; [5]): 17.71 μM/L
- transferrin saturation, mean percent change from baseline (healthy volunteers [3]; [6]): 1.5%
- serum iron, mean change from baseline (healthy volunteers [3]; [6]): 0.59 μM/L
- transferrin saturation, mean percent change from baseline (healthy volunteers [3]; [7]): 7.5%
- serum iron, mean change from baseline (healthy volunteers [3]; [7]): 5.11 μM/L
- serum ferritin (healthy volunteers [3]; MAD cohort participants): decreases in serum ferritin
- day of peak increase in reticulocyte hemoglobin content (healthy volunteers [3]; MAD cohorts): 7 days
- start of increase in reticulocyte hemoglobin content (healthy volunteers [3]; MAD cohorts 1-4, day post-dosing): 4 days
- effect on serum ferritin, single vs multiple doses (healthy volunteers [3]; SAD and MAD cohorts): observed only after multiple doses
- time to decrease in total cholesterol (healthy volunteers [3]; SAD cohorts): ≤ 24 h
- day of peak serum iron concentrations (healthy volunteers [3]; multiple dose regimen, day of treatment): Day 3 or 4
- transferrin saturation, observed PD response (healthy volunteers [3]; once-daily doses of 50 mg): not substantially different from placebo
- serum hepcidin vs placebo (healthy volunteers [3]; once-daily oral over 7 days, effect similar at 50 mg, 100 mg and 200 mg): robust decreases in baseline hepcidin
- hemoglobin content of reticulocytes (healthy volunteers [3]; repeated administration): increases over baseline in the hemoglobin content of reticulocytes
- serum iron (healthy volunteers [3]; single (SAD) or once-daily (MAD) oral administration): rapid, robust, and sustained dose-related increases in serum iron
- transferrin saturation, observed PD response (healthy volunteers [3]; single dose of 30 mg, liquid formulation): not substantially different from placebo
- time of peak effect on serum iron (healthy volunteers [3]; single dose, Day 2, post-dose): 24 h
- transferrin saturation (healthy volunteers [3]; single or repeated doses of 100 mg or above): sustained, dose-related increases in transferrin saturation
- total cholesterol (healthy volunteers [3]; single or repeated oral administration (Cohorts 1-4)): decreases in total cholesterol

SMILES: COc1cc2c(-c3cnn4cc(N5CC(N6CCN(C)CC6)C5)cnc34)ccnc2cc1F [Formula I-42]
- hematocrit, higher than vehicle-treated mice receiving adenine [4, 8]: 10.2%
- hemoglobin, higher than vehicle-treated mice receiving adenine [4, 8]: 10.7%
- red blood cell counts, higher than vehicle-treated mice receiving adenine [4, 8]: 7.1%
- reticulocyte hemoglobin content, higher than vehicle-treated mice receiving adenine [4, 8]: 10.4%
- increase in serum iron values vs vehicle treated mice receiving adenine [4, 9]: 108.2%
- reduction in serum hepcidin values vs vehicle treated mice receiving adenine [4, 9]: 85.4%
- disease phenotype (mouse model of IRIDA; 5 mg/kg once-daily oral): rescued the disease phenotype
- serum hepcidin vs vehicle-treated mice receiving TMPRSS6 siRNA (mouse model of IRIDA; [10]): decreased serum hepcidin
- serum iron vs vehicle-treated mice receiving TMPRSS6 siRNA (mouse model of IRIDA; [10]): increased serum iron
- hematocrit vs vehicle-treated mice (mouse model of IRIDA; [11]): increase
- hemoglobin levels vs vehicle-treated mice (mouse model of IRIDA; [11]): increase
- red blood cell counts vs vehicle-treated mice (mouse model of IRIDA; [11]): increase
